Results taken from paper PMC10065276, “Enhanced therapeutic window for antimicrobial Pept-ins by investigating their structure-activity relationship” (PLOS ONE, 2023).
Residues, ends and D or L forms follow the SMILES beside them.

Each molecule was assayed on E. coli BL21. Conditions: BL21, 17 h.
In short: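 EUCAST broth microdilution in Mueller-Hinton medium; end-exponential culture diluted to 0.005 McF (~1.5x10^6 CFU/mL) before 1:1 mixing with two-fold peptide dilutions (0.75 to 100 μg/mL), triplicates.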

| SMILES | BL21 MIC, SS bond [mg/L] | BL21 MIC, no SS bond [mg/L] | BL21 MIC [mg/L] |
| --- | --- | --- | --- |
| CC(C)C[C@H](NC(=O)CNC(=O)[C@H](CCCNC(=N)N)NC(=O)[C@@H]1CSSC[C@H](NC(=O)[C@@H](NC(=O)[C@H](CC(C)C)NC(=O)[C@H](C)NC(=O)[C@H](CC(C)C)NC(=O)CNC(=O)[C@H](CC(C)C)NC(=O)CNC(=O)[C@@H](N)CCCNC(=N)N)C(C)C)C(=O)N[C@@H](CCCNC(=N)N)C(=O)N[C@@H](CCCNC(=N)N)C(=O)N2CCC[C@@H]2C(=O)NCC(=O)N1)C(=O)NCC(=O)N[C@@H](CC(C)C)C(=O)N[C@@H](C)C(=O)N[C@@H](CC(C)C)C(=O)N[C@H](C(=O)N[C@@H](CCCNC(=N)N)C(=O)N[C@@H](CCCNC(=N)N)C(=O)O)C(C)C [Peptide P2_H12_pG] | 3.13 | 6.25 | – |
| CC(C)C[C@H](NC(=O)CNC(=O)[C@H](CCCNC(=N)N)NC(=O)[C@@H]1CCCN1C(=O)[C@H](CCCNC(=N)N)NC(=O)[C@H](CCCNC(=N)N)NC(=O)[C@@H](NC(=O)[C@H](CC(C)C)NC(=O)[C@H](C)NC(=O)[C@H](CC(C)C)NC(=O)CNC(=O)[C@H](C)NC(=O)CNC(=O)[C@@H](N)CCCNC(=N)N)C(C)C)C(=O)NCC(=O)N[C@@H](CC(C)C)C(=O)N[C@@H](C)C(=O)N[C@@H](CC(C)C)C(=O)N[C@H](C(=O)N[C@@H](CCCNC(=N)N)C(=O)N[C@@H](CCCNC(=N)N)C(=O)O)C(C)C [Peptide P2_L3A] (H-RGAGLALVRRPRGLGLALVRR-OH) | – | – | 12.50 |
| CC(C)C[C@H](NC(=O)CNC(=O)[C@H](CCCNC(=N)N)NC(=O)[C@@H]1CCCN1C(=O)[C@H](CCCNC(=N)N)NC(=O)[C@H](CCCNC(=N)N)NC(=O)[C@@H](NC(=O)[C@H](CC(C)C)NC(=O)[C@H](C)NC(=O)[C@H](C)NC(=O)CNC(=O)[C@H](CC(C)C)NC(=O)CNC(=O)[C@@H](N)CCCNC(=N)N)C(C)C)C(=O)NCC(=O)N[C@@H](CC(C)C)C(=O)N[C@@H](C)C(=O)N[C@@H](CC(C)C)C(=O)N[C@H](C(=O)N[C@@H](CCCNC(=N)N)C(=O)N[C@@H](CCCNC(=N)N)C(=O)O)C(C)C [Peptide P2_L5A] (H-RGLGAALVRRPRGLGLALVRR-OH) | – | – | 50.00 |
| CC(C)C[C@H](NC(=O)CNC(=O)[C@H](CCCNC(=N)N)NC(=O)[C@@H]1CCCN1C(=O)[C@H](CCCNC(=N)N)NC(=O)[C@H](CCCNC(=N)N)NC(=O)[C@@H](NC(=O)[C@H](C)NC(=O)[C@H](C)NC(=O)[C@H](CC(C)C)NC(=O)CNC(=O)[C@H](CC(C)C)NC(=O)CNC(=O)[C@@H](N)CCCNC(=N)N)C(C)C)C(=O)NCC(=O)N[C@@H](CC(C)C)C(=O)N[C@@H](C)C(=O)N[C@@H](CC(C)C)C(=O)N[C@H](C(=O)N[C@@H](CCCNC(=N)N)C(=O)N[C@@H](CCCNC(=N)N)C(=O)O)C(C)C [Peptide P2_L7A] (H-RGLGLAAVRRPRGLGLALVRR-OH) | – | – | 50.00 |
| CC(C)C[C@H](NC(=O)CNC(=O)[C@@H](N)CCCNC(=N)N)C(=O)NCC(=O)N[C@@H](CC(C)C)C(=O)N[C@@H](C)C(=O)N[C@@H](CC(C)C)C(=O)N[C@H](C(=O)N[C@@H](CCCNC(=N)N)C(=O)N[C@@H](CCCNC(=N)N)C(=O)N1CCC[C@H]1C(=O)N[C@@H](CCCNC(=N)N)C(=O)NCC(=O)N[C@@H](C)C(=O)NCC(=O)N[C@@H](CC(C)C)C(=O)N[C@@H](C)C(=O)N[C@@H](CC(C)C)C(=O)N[C@H](C(=O)N[C@@H](CCCNC(=N)N)C(=O)N[C@@H](CCCNC(=N)N)C(=O)O)C(C)C)C(C)C [Peptide P2_L14A] (H-RGLGLALVRRPRGAGLALVRR-OH) | – | – | 25.00 |
| CC(C)C[C@H](NC(=O)CNC(=O)[C@H](CCCNC(=N)N)NC(=O)[C@@H]1CCCN1C(=O)[C@H](CCCNC(=N)N)NC(=O)[C@H](CCCNC(=N)N)NC(=O)[C@@H](NC(=O)[C@H](CC(C)C)NC(=O)[C@H](C)NC(=O)[C@H](CC(C)C)NC(=O)CNC(=O)[C@H](CC(C)C)NC(=O)CNC(=O)[C@@H](N)CCCNC(=N)N)C(C)C)C(=O)NCC(=O)N[C@@H](C)C(=O)N[C@@H](C)C(=O)N[C@@H](CC(C)C)C(=O)N[C@H](C(=O)N[C@@H](CCCNC(=N)N)C(=O)N[C@@H](CCCNC(=N)N)C(=O)O)C(C)C [Peptide P2_L16A] (H-RGLGLALVRRPRGLGAALVRR-OH) | – | – | 50.00 |
| CC(C)C[C@H](NC(=O)CNC(=O)[C@H](CCCNC(=N)N)NC(=O)[C@@H]1CCCN1C(=O)[C@H](CCCNC(=N)N)NC(=O)[C@H](CCCNC(=N)N)NC(=O)[C@@H](NC(=O)[C@H](CC(C)C)NC(=O)[C@H](C)NC(=O)[C@H](CC(C)C)NC(=O)CNC(=O)[C@H](CC(C)C)NC(=O)CNC(=O)[C@@H](N)CCCNC(=N)N)C(C)C)C(=O)NCC(=O)N[C@@H](CC(C)C)C(=O)N[C@@H](C)C(=O)N[C@@H](C)C(=O)N[C@H](C(=O)N[C@@H](CCCNC(=N)N)C(=O)N[C@@H](CCCNC(=N)N)C(=O)O)C(C)C [Peptide P2_L18A] (H-RGLGLALVRRPRGLGLAAVRR-OH) | – | – | 50.00 |
| CC(C)C[C@H](NC(=O)CNC(=O)[C@H](CCCNC(=N)N)NC(=O)[C@@H]1CCCN1C(=O)[C@H](CCCNC(=N)N)NC(=O)[C@H](C)NC(=O)[C@@H](NC(=O)[C@H](CC(C)C)NC(=O)[C@H](C)NC(=O)[C@H](CC(C)C)NC(=O)CNC(=O)[C@H](CC(C)C)NC(=O)CNC(=O)[C@@H](N)CCCNC(=N)N)C(C)C)C(=O)NCC(=O)N[C@@H](CC(C)C)C(=O)N[C@@H](C)C(=O)N[C@@H](CC(C)C)C(=O)N[C@H](C(=O)N[C@@H](CCCNC(=N)N)C(=O)N[C@@H](CCCNC(=N)N)C(=O)O)C(C)C [Peptide P2_R9A] (H-RGLGLALVARPRGLGLALVRR-OH) | – | – | 12.50 |
| CC(C)C[C@H](NC(=O)CNC(=O)[C@H](CCCNC(=N)N)NC(=O)[C@@H]1CCCN1C(=O)[C@H](CCCNC(=N)N)NC(=O)[C@H](CCCNC(=N)N)NC(=O)[C@@H](NC(=O)[C@H](CC(C)C)NC(=O)[C@H](C)NC(=O)[C@H](CC(C)C)NC(=O)CNC(=O)[C@H](CC(C)C)NC(=O)CNC(=O)[C@@H](N)CCCNC(=N)N)C(C)C)C(=O)NCC(=O)N[C@@H](CC(C)C)C(=O)N[C@@H](C)C(=O)N[C@@H](CC(C)C)C(=O)N[C@H](C(=O)N[C@@H](C)C(=O)N[C@@H](CCCNC(=N)N)C(=O)O)C(C)C [Peptide P2_R20A] (H-RGLGLALVRRPRGLGLALVAR-OH) | – | – | 6.25 |
| CC(C)C[C@H](NC(=O)CNC(=O)[C@H](CCCNC(=N)N)NC(=O)[C@@H]1CCCN1C(=O)[C@H](CCCNC(=N)N)NC(=O)[C@H](CCCNC(=N)N)NC(=O)[C@H](C)NC(=O)[C@H](CC(C)C)NC(=O)[C@H](C)NC(=O)[C@H](CC(C)C)NC(=O)CNC(=O)[C@H](CC(C)C)NC(=O)CNC(=O)[C@@H](N)CCCNC(=N)N)C(=O)NCC(=O)N[C@@H](CC(C)C)C(=O)N[C@@H](C)C(=O)N[C@@H](CC(C)C)C(=O)N[C@H](C(=O)N[C@@H](CCCNC(=N)N)C(=O)N[C@@H](CCCNC(=N)N)C(=O)O)C(C)C [Peptide P2_V8A] (H-RGLGLALARRPRGLGLALVRR-OH) | – | – | 25.00 |
| CC(C)C[C@H](NC(=O)CNC(=O)[C@H](CCCNC(=N)N)NC(=O)[C@@H]1CCCN1C(=O)[C@H](CCCNC(=N)N)NC(=O)[C@H](CCCNC(=N)N)NC(=O)[C@@H](NC(=O)[C@H](CC(C)C)NC(=O)[C@H](C)NC(=O)[C@H](CC(C)C)NC(=O)CNC(=O)[C@H](CC(C)C)NC(=O)CNC(=O)[C@@H](N)CCCNC(=N)N)C(C)C)C(=O)NCC(=O)N[C@@H](CC(C)C)C(=O)N[C@@H](C)C(=O)N[C@@H](CC(C)C)C(=O)N[C@@H](C)C(=O)N[C@@H](CCCNC(=N)N)C(=O)N[C@@H](CCCNC(=N)N)C(=O)O [Peptide P2_V19A] (H-RGLGLALVRRPRGLGLALARR-OH) | – | – | 25.00 |
| CC(C)C[C@H](NC(=O)CNC(=O)[C@H](CCCNC(=N)N)NC(=O)[C@@H]1CSSC[C@H](NC(=O)[C@@H](NC(=O)[C@H](CC(C)C)NC(=O)[C@H](C)NC(=O)[C@H](CC(C)C)NC(=O)CNC(=O)[C@H](CC(C)C)NC(=O)CNC(=O)[C@@H](N)CCCNC(=N)N)C(C)C)C(=O)N[C@@H](CCCNC(=N)N)C(=O)N[C@@H](CCCNC(=N)N)C(=O)N2CCC[C@H]2C(=O)N1)C(=O)NCC(=O)N[C@@H](CC(C)C)C(=O)N[C@@H](C)C(=O)N[C@@H](CC(C)C)C(=O)N[C@H](C(=O)N[C@@H](CCCNC(=N)N)C(=O)N[C@@H](CCCNC(=N)N)C(=O)O)C(C)C [Peptide P2_var9] | 6.25 | 6.25 | – |
| CC[C@H](C)[C@H](NC(=O)CNC(=O)[C@H](CC(C)C)NC(=O)[C@@H](N)CCCNC(=N)N)C(=O)N[C@@H](C)C(=O)N[C@H](C(=O)N[C@@H](C)C(=O)N[C@@H](C)C(=O)N[C@@H](CCCNC(=N)N)C(=O)N[C@@H](CCCNC(=N)N)C(=O)N1CCC[C@H]1C(=O)N[C@@H](CCCNC(=N)N)C(=O)N[C@@H](CC(C)C)C(=O)NCC(=O)N[C@H](C(=O)N[C@@H](C)C(=O)N[C@H](C(=O)N[C@@H](C)C(=O)N[C@@H](CC(C)C)C(=O)N[C@@H](CCCNC(=N)N)C(=O)N[C@@H](CCCNC(=N)N)C(=O)O)C(C)C)[C@@H](C)CC)C(C)C [Peptide P33-8LA] (H-RLGIAVAARRPRLGIAVALRR-OH) | – | – | 6.25 |
| CC[C@H](C)[C@H](NC(=O)CNC(=O)[C@H](CC(C)C)NC(=O)[C@H](CCCNC(=N)N)NC(=O)[C@@H]1CCCN1C(=O)[C@H](CCCNC(=N)N)NC(=O)[C@H](CCCNC(=N)N)NC(=O)[C@H](CC(C)C)NC(=O)[C@H](C)NC(=O)[C@@H](NC(=O)[C@H](C)NC(=O)[C@@H](NC(=O)[C@H](C)NC(=O)[C@H](CC(C)C)NC(=O)[C@@H](N)CCCNC(=N)N)[C@@H](C)CC)C(C)C)C(=O)N[C@@H](C)C(=O)N[C@H](C(=O)N[C@@H](C)C(=O)N[C@@H](CC(C)C)C(=O)N[C@@H](CCCNC(=N)N)C(=O)N[C@@H](CCCNC(=N)N)C(=O)O)C(C)C [Peptide P33-G3A] (H-RLAIAVALRRPRLGIAVALRR-OH) | – | – | 6.25 |

Same assay, conditions: S1 Table, gatekeeper modification; broth microdilution, MH medium, 37°C, 17 h

| SMILES | BL21 MIC [mg/L] |
| --- | --- |
| CC(C)C[C@H](NC(=O)CNC(=O)[C@H](CC(N)=O)NC(=O)[C@@H]1CCCN1C(=O)[C@H](CC(N)=O)NC(=O)[C@H](CC(N)=O)NC(=O)[C@@H](NC(=O)[C@H](CC(C)C)NC(=O)[C@H](C)NC(=O)[C@H](CC(C)C)NC(=O)CNC(=O)[C@H](CC(C)C)NC(=O)CNC(=O)[C@@H](N)CC(N)=O)C(C)C)C(=O)NCC(=O)N[C@@H](CC(C)C)C(=O)N[C@@H](C)C(=O)N[C@@H](CC(C)C)C(=O)N[C@H](C(=O)N[C@@H](CC(N)=O)C(=O)N[C@@H](CC(N)=O)C(=O)O)C(C)C [Peptide P2_N] (H-NGLGLALVNNPNGLGLALVNN-OH) | >100.00 |
